From patent US5883097A, “Soluble azole antifungal salt” (Schering Corporation, priority 1998, dated 1999)
Counter-ions that a name gives are not always drawn.

Legend:
[1] = Solubility in water; format: physicochemical
Protocol: (§1) Only 1-2 mg of the hydrochloride salt dissolves in 1 mL of water, and unacceptably large volumes of water would be required for delivery of an effective dose. Furthermore, only in an aqueous hydrochloric acid solution at the physiologically unacceptable pH of 1-1.5 does enough of the hydrochloride acid addition salt of the compound of formula I dissolve to provide a suitably concentrated solution useful for intravenous use.

[2] = Solubility in aqueous hydrochloric acid solution; format: physicochemical; conditions: only in an aqueous hydrochloric acid solution; physiologically unacceptable pH
Protocol: as §1

[3] = Serum levels following oral dosing in mice; conditions: methyl cellulose formulation
[4] = Serum levels following oral dosing in rats; conditions: methyl cellulose formulation
[5] = Serum levels following oral dosing in dogs; conditions: methyl cellulose formulation
[6] = Serum levels following oral dosing in monkeys; conditions: methyl cellulose formulation
[7] = Serum half life and tissue distribution following O.D. dosing
[8] = tested on: Aspergillus; conditions: SDB, geometric mean MIC and MFC
[9] = tested on: cytochrome P-450 liver drug metabolizing enzymes; assay: Induction of cytochrome P-450 liver drug metabolizing enzymes, in vivo rat model; conditions: oral administration
[10] = Solubility in aqueous lactic acid solution / pharmaceutically acceptable carriers; format: physicochemical
[11] = In vivo conversion into the alcohol of formula II

What does the source list for CCC(C(C)OC(=O)CN)n1ncn(-c2ccc(N3CCN(c4ccc(OCC5COC(Cn6cncn6)(c6ccc(F)cc6F)C5)cc4)CC3)cc2)c1=O (single isomer, unassigned; (-)) [Hydrochloride]?
solubility in water ([1]; Hydrochloride): sparingly soluble; solubility ([1]; read-out: amount of salt dissolving in 1 mL of water): 1000 to 2000 µg/mL; pH of aqueous hydrochloric acid at which enough salt dissolves to provide a suitably concentrated solution for intravenous use [2]: 1-1.5

Which “serum levels compared to azoles of similar structure, mice” value [3] does the source give for CCC(C(C)O)n1ncn(-c2ccc(N3CCN(c4ccc(OCC5COC(Cn6cncn6)(c6ccc(F)cc6F)C5)cc4)CC3)cc2)c1=O [compound of formula II, -(2 R-cis)-4-[4-[4-[4-[[-5-(2,4-Difluorophenyl)-tetrahydro-5-(1 H-1,2,4-triazol-1-ylmethyl)furan-3-yl]methoxy]phenyl]-1-piperazinyl]phenyl]-2-4-dihydro-2-[(1 S)-ethyl-2(S)-hydroxypropyl]-3 H-1,2,4-triazol-3-one] here?
Its value is “consistently higher serum levels”.

What about the “serum levels compared to azoles of similar structure, rats” value [4] of the same compound?
Its value is “consistently higher serum levels”.

And the “serum levels compared to azoles of similar structure, dogs” value [5]?
Its value is “consistently higher serum levels”.

And the “serum levels compared to azoles of similar structure, monkeys” value [6]?
Its value is “consistently higher serum levels”.

What about the serum half lives [7] of the same compound?
Its serum half lives is “very long serum half lives”.

And the tissue distribution [7]?
The tissue distribution was “good tissue distribution”.

What about the “in vitro antifungal activity against 37 species of Aspergillus compared to fluconazole” value [8] of the same compound?
The value was “superior antifungal in vitro activity”.

What about the “induction of cytochrome P-450 liver drug metabolizing enzymes” value [9] of the same compound?
Its value is “not an inducer”.

With CCC(C(C)OC(=O)CN)n1ncn(-c2ccc(N3CCN(c4ccc(OCC5COC(Cn6cncn6)(c6ccc(F)cc6F)C5)cc4)CC3)cc2)c1=O (single isomer, unassigned; (-)) as the compound, how does the “solubility in water” value ([1]; listed as lactic acid addition salt) read?
Its value is “water soluble”.

What about the “solubility in pharmaceutically acceptable carriers, especially aqueous lactic acid solutions” value ([10]; aqueous lactic acid solutions) of the same compound?
The value was “surprisingly soluble”.

What about the “solubility in aqueous lactic acid solution at physiologically acceptable pH” value ([10]; pH of at least about 3 to 3.5) of the same compound?
The value was “soluble”.

And the “in vivo conversion into the corresponding alcohol of formula II” value [11]?
The value was “readily convertible in vivo”.
